Columns and labels:
[1] = test system: Phytophthora infestans; type: in vivo; conditions: tomato plants, preventive spray, 500 ppm, grading 5 days after contamination
[2] = test system: Uromyces appendiculatus; experiment: In vivo preventive test on Uromyces appendiculatus (bean rust); conditions: bean plants, preventive spray, 500 ppm, grading 11 days after contamination
Description: Example: In Vivo Preventive Test on Uromyces appendiculatus (Bean Rust) […] Bean plants (“Saxa” variety), sown in starter cups on a 50/50 peat soil-pozzolana substrate and grown at 24° C., are treated at the 2-leaf stage (9 cm height) by spraying with the active ingredient prepared as described above. Plants, used as controls, are treated with the mixture of acetone/tween/DMSO/water not containing the active material. After 24 hours, the plants are contaminated by spraying the leaves with an aqueous suspension of Uromyces appendiculatus spores (150 000 spores per ml). […] Grading (% of efficacy) is carried out 11 days after the contamination, in comparison with the control plants. Under these conditions, good (at least 70%) or total protection is observed at a dose of 500 ppm with the following compounds: […]

[3] = test system: Sphaerotheca fuliginea; experiment: In vivo preventive test on Sphaerotheca fuliginea (powdery mildew on cucurbits); conditions: gherkin plants, preventive spray, 500 ppm, grading 12 days after contamination
Description: Example: In Vivo Preventive Test on Sphaerotheca fuliginea (Powdery Mildew on Cucurbits) […] Gherkin plants (“Vert petit de Paris” variety), sown in starter cups on a 50/50 peat soil-pozzolana substrate and grown at 24° C., are treated at the Z11 cotyledon stage by spraying with the active ingredient prepared as described above. Plants, used as controls, are treated with the mixture of acetone/tween/DMSO/water not containing the active material. After 24 hours, the plants are contaminated by spraying the cotyledons with an aqueous suspension of Sphaerotheca fuliginea spores (100 000 spores per ml). The spores are collected from infected plants. […] Grading (% of efficacy) is carried out 12 days after the contamination, in comparison with the control plants. Under these conditions, good (at least 70%) or total protection is observed at a dose of 500 ppm with the following compounds: […]

[4] = logP by HPLC on reversed phase columns (EEC directive 79/831 Annex V.A8); conditions: method [a]: LC-MS at pH 2.7, 0.1% formic acid in water / acetonitrile gradient 10% to 95%
[5] = test system: Puccinia recondita; experiment: In vivo preventive test on Puccinia recondita (brown rust on wheat); conditions: wheat plants, preventive spray, 500 ppm, grading 12 days after contamination
Description: Example: In Vivo Preventive Test on Puccinia recondita (Brown Rust on Wheat) […] Wheat plants (“Scipion” variety), sown in starter cups on a 50/50 peat soil-pozzolana substrate and grown at 22° C., are treated at the 1-leaf stage (10 cm height) by spraying with the active ingredient prepared as described above. Plants, used as controls, are treated with the mixture of acetone/tween/DMSO/water not containing the active material. After 24 hours, the plants are contaminated by spraying the leaves with an aqueous suspension of Puccinia […] spores (100 000 spores per ml). […] Grading (% of efficacy) is carried out 12 days after the contamination, in comparison with the control plants. Under these conditions, good (at least 70%) or total protection is observed at a dose of 500 ppm with the following compounds: […]

[6] = test system: Botrytis cinerea; experiment: In vivo preventive test on Botrytis cinerea (grey mould); conditions: gherkin plants, preventive spray, 500 ppm, grading 4 to 5 days after contamination
Description: Example: In Vivo Preventive Test on Botrytis cinerea (Grey Mould) […] Gherkin plants (“Vert petit de Paris” variety), sown in starter cups on a 50/50 peat soil-pozzolana substrate and grown at 24° C., are treated at the Z11 cotyledon stage by spraying with the active ingredient prepared as described above. Plants, used as controls, are treated with the mixture of acetone/tween/DMSO/water not containing the active material. After 24 hours, the plants are contaminated by spraying the cotyledons with an aqueous suspension of cryopreserved Botrytis cinerea spores (50 000 spores per ml). The spores are suspended in a nutrient solution composed of 10 g/L of PDB, 50 g/L of D-Fructose, 2 g/L of NH4NO3 and 1 g/L of KH2PO4. […] Grading (% of efficacy) is carried out 4 to 5 days after the contamination, in comparison with the control plants. Under these conditions, good (at least 70%) or total protection is observed at a dose of 500 ppm with the following compounds: […]

[7] = test system: Pyrenophora teres; experiment: In vivo preventive test on Pyrenophora teres (net blotch on barley); conditions: barley plants, preventive spray, 500 ppm, grading 14 days after contamination
Description: Example: In Vivo Preventive Test on Pyrenophora teres (Net Blotch on Barley) […] Barley plants (“Plaisant” variety), sown in starter cups on a 50/50 peat soil-pozzolana substrate and grown at 22° C., are treated at the 1-leaf stage (10 cm height) by spraying with the active ingredient prepared as described above. Plants, used as controls, are treated with the mixture of acetone/tween/DMSO/water not containing the active material. After 24 hours, the plants are contaminated by spraying the leaves with an aqueous suspension of Pyrenophora teres spores (12 000 spores per ml). The spores are collected from a 12-day-old culture. […] Grading (% of efficacy) is carried out 14 days after the contamination, in comparison with the control plants. Under these conditions, good (at least 70%) or total protection is observed at a dose of 500 ppm with the following compounds: […]

[8] = test system: Alternaria brassicae; experiment: In vivo preventive test on Alternaria brassicae (leaf spot on radish); conditions: radish plants, preventive spray, 500 ppm, grading 6 days after contamination
Description: Example: In Vivo Preventive Test on Alternaria brassicae (Leaf Spot on Radish) […] Radish plants (“Pernod Clair” variety), sown in starter cups on a 50/50 peat soil-pozzolana substrate and grown at 17° C., are treated at the cotyledon stage by spraying with the active ingredient prepared as described above. Plants, used as controls, are treated with the mixture of acetone/tween/DMSO/water not containing the active material. After 24 hours, the plants are contaminated by spraying the cotyledons with an aqueous suspension of Alternaria brassicae spores (50 000 spores per ml). The spores are collected from a 15-day-old culture. […] Grading (% of efficacy) is carried out 6 days after the contamination, in comparison with the control plants. Under these conditions, good (at least 70%) or total protection is observed at a dose of 500 ppm with the following compounds: […]

[9] = test system: Pyricularia oryzae; type: in vivo; conditions: rice plants, preventive spray, 500 ppm, grading 6 days after contamination
[10] = test system: Septoria tritici; experiment: In vivo preventive test on Septoria tritici (leaf spot on wheat); conditions: wheat plants, preventive spray, 500 ppm, grading 24 days after contamination
Description: Example: In Vivo Preventive Test on Septoria tritici (Leaf Spot on Wheat) […] Wheat plants (“Scipion” variety), sown in starter cups on a 50/50 peat soil-pozzolana substrate and grown at 22° C., are treated at the 1-leaf stage (10 cm height) by spraying with the active ingredient prepared as described above. Plants, used as controls, are treated with the mixture of acetone/tween/DMSO/water not containing the active material. After 24 hours, the plants are contaminated by spraying the leaves with an aqueous suspension of cryopreserved Septoria tritici spores (500 000 spores per ml). […] Grading (% of efficacy) is carried out 24 days after the contamination, in comparison with the control plants. Under these conditions, good (at least 70%) or total protection is observed at a dose of 500 ppm with the following compounds: […]

[11] = test system: Phakopsora pachyrhizi; experiment: In vivo Phakopsora test (soybeans)/preventive; conditions: preventive, 100 ppm of active ingredient, evaluated 7 days after inoculation
Description: Example: In Vivo Phakopsora Test (Soybeans)/Preventive Solvent: 24.5 parts by weight of acetone • 24.5 parts by weight of dimethylacetamide Emulsifier: • 1 part by weight of alkylaryl polyglycol ether To produce a suitable preparation of active compound, 1 part by weight of active compound is mixed with the stated amounts of solvent and emulsifier, and the concentrate is diluted with water to the desired concentration. To test for preventive activity, young plants are sprayed with the preparation of active compound at the stated rate of application. After the spray coating has dried on, the plants are inoculated with an aqueous to spore suspension of the causal agent of soybean rust (Phakopsora pachyrhizi) and stay for 24 h without light in an incubation cabinet at approximately 24° C. and a relative atmospheric humidity of 95%.

Structure (SMILES)	Eff. % [1]	Eff. % [2]	Eff. % [3]	logP [4]	Eff. % [5]	Eff. % [6]	Eff. % [7]	Eff. % [8]	Eff. % [9]	Eff. % [10]	Eff. % [11]
C#CCON=C(C)c1ccc(-c2ccccc2NC(=O)c2c(C(F)F)nn(C)c2Cl)cc1 [Example 3]	99%	100%	70%	4.06[a]	98%						
C#CCON=Cc1ccc(-c2ccccc2NC(=O)c2c(C(F)F)nn(C)c2Cl)cc1 [Example 5]		100%	100%	3.79[a]	100%	100%	86%	88%	90%		
CCON=Cc1ccc(-c2ccccc2NC(=O)c2c(C(F)F)nn(C)c2Cl)cc1 [Example 6]		100%	100%	4.19[a]	100%	93%	100%	97%	100%		
C#CCON=C(C)c1ccc(-c2ccccc2NC(=O)c2c(C(F)F)nn(C)c2F)cc1 [Example 12]		100%	96%	3.8[a]	98%	85%	80%	97%		75%	
CC#CCON=C(C)c1ccc(-c2ccccc2NC(=O)c2c(C(F)F)nn(C)c2F)cc1 [Example 13]		100%	100%	4.11[a]	100%	80%	88%			80%	100%
CCON=Cc1ccc(-c2ccccc2NC(=O)c2c(C(F)F)nn(C)c2Cl)cc1F [Example 18]		100%	100%	4.22[a]	97%	70%	100%	94%		75%	
CC#CCON=Cc1ccc(-c2ccccc2NC(=O)c2c(C(F)F)nn(C)c2F)cc1 [Example 21]		100%	100%	3.87[a]	94%	98%	88%			96%	
CC#CCON=Cc1ccc(-c2ccccc2NC(=O)c2c(C(F)F)nn(C)c2Cl)cc1 [Example 22]		100%	100%	4.13[a]	98%	98%		75%		96%	
CON=Cc1ccc(-c2ccccc2NC(=O)c2c(C(F)F)nn(C)c2Cl)cc1C [Example 25]		94%	100%	4.04[a]	100%	98%	100%	94%		75%	
CC#CCON=C(C)c1ccc(-c2ccccc2NC(=O)c2c(C(F)F)nn(C)c2Cl)cc1 [Example 27]		100%	100%	4.41[a]	98%					70%	100%
CON=Cc1ccc(-c2c(F)cccc2NC(=O)c2c(C(F)F)nn(C)c2Cl)cc1 [Example 28]		100%	100%	3.76[a]	89%		93%	92%		92%	
CON=Cc1ccc(-c2cc(F)ccc2NC(=O)c2c(C(F)F)nn(C)c2Cl)cc1 [Example 30]		100%	100%	3.66[a]	100%		93%	97%		97%	
CCON=Cc1ccc(-c2ccccc2NC(=O)c2c(C(F)F)nn(C)c2Cl)cc1C [Example 39]		100%	100%	4.48[a]	97%	99%	100%	94%		92%	
CCON=Cc1ccc(-c2c(F)cccc2NC(=O)c2c(C(F)F)nn(C)c2Cl)cc1 [Example 40]		100%	100%	4.18[a]	97%		90%	94%		75%	

— US9765034B2, “5-halogenopyrazole biphenylcarboxamides” (BAYER CROPSCIENCE AG, priority 2012, dated 2017)
